Calls of active or inactive are those of the source. No cut-off for these calls is given here.
Tests used:
[1] = molecular target: Tubulin; assay: Inhibition of tubulin (unknown origin) polymerization incubated 15 mins prior to GTP addition by spectrophotometry; type: protein-complex assay, Homo sapiens
[2] = Cytotoxicity against human HCT116 cells assessed as growth inhibition after 48 hrs by MTT method; type: functional, cell-based; details: HCT-116, 48 h
[3] = test system: A549; assay: Cytotoxicity against human A549 cells assessed as growth inhibition after 48 hrs by MTT method; type: functional, cell-based; details: A549, 48 h
[4] = test system: HeLa; assay: Cell cycle arrest in human HeLa cells assessed as mitotic rounded-up phenotype at 100 nM by light microscopy; type: functional, cell-based
[5] = cells; details: Homo sapiens, OVCAR-8, 96 h
Description: Cytotoxicity against human OVCAR8 cells assessed as growth inhibition after 96 hrs by Giemsa staining-based light microscopy

[6] = test system: HeLa; assay: Cell cycle arrest in human HeLa cells assessed as accumulation at G2/M phase at 100 nM by propidium iodide staining-based flow cytometry; type: functional
[7] = test system: HT-29; assay: Cytotoxicity against human HT-29 cells assessed as growth inhibition after 48 hrs by MTT method; type: functional, cell-based; details: HT-29, 48 h
[8] = test system: MCF7; assay: Cytotoxicity against human MCF7 cells after 96 hrs by Giemsa staining-based light microscopy; type: functional, cell-based; details: MCF7, 96 h
[9] = molecular target: Tubulin (Homo sapiens) (UniProt P68371+Q9H4B7+P0DPH7+P68366+Q13509+Q71U36+P04350+Q3ZCM7+P07437+P68363+Q9BQE3+Q6PEY2+Q13885+Q9BVA1+Q9BUF5); assay: Displacement of [3H]colchicine from tubulin (unknown origin) at 5 uM after 10 mins; type: protein-complex assay
[10] = test system: MCF7; assay: Cell cycle arrest in human MCF7 cells at 100 nM by immunofluorescence microscopy; type: functional, cell-based
[11] = test system: MCF7; assay: Cell cycle arrest in human MCF7 cells expressing exogenous caspase-3 at 100 nM by immunofluorescence microscopy; type: functional, cell-based
[12] = Cytotoxicity against human MESSA cells assessed as growth inhibition after 72 hrs by CellTitre-Glo assay; type: functional, cell-based; details: MES-SA
[13] = test system: HeLa; assay: Cell cycle arrest in human HeLa cells assessed as accumulation at G2/M phase at 20 nM by propidium iodide staining-based flow cytometry; type: functional
[14] = test system: HeLa; assay: Induction of apoptosis in human HeLa cells assessed as short, aberrantly shaped, tripolar or multipolar microtubule at 100 nM by immunofluorescence analysis; type: functional, cell-based
[15] = test system: NCI/ADR-RES; assay: Cytotoxicity against human NCI/ADR-RES cells assessed as growth inhibition after 96 hrs by Giemsa staining-based light microscopy; type: functional, cell-based
[16] = test system: HeLa; assay: Cytotoxicity against human HeLa cells assessed as growth inhibition after 48 hrs by MTT method; type: functional, cell-based
[17] = test system: HeLa; assay: Cell cycle arrest in human HeLa cells by propidium iodide staining-based flow cytometry; type: functional
[18] = Cell cycle arrest in human PC3 cells at 500 to 2000 nM incubated for 24 hrs followed by compound washout measured after 24 hrs; type: functional, cell-based; details: PC-3
[19] = Cell cycle arrest in human PC3 cells assessed as rounded cells at 500 nM after 24 hrs by propidium iodide staining-based flow cytometry; type: functional; details: PC-3
[20] = test system: HepG2; assay: Cell cycle arrest in human HepG2 cells at 500 to 2000 nM incubated for 24 hrs followed by compound washout measured after 24 hrs; type: functional, cell-based
[21] = Cell cycle arrest in human PC3 cells assessed as accumulation at G2/M phase at 500 nM after 24 hrs by propidium iodide staining-based flow cytometry; type: functional; details: PC-3
[22] = test system: HepG2; assay: Cell cycle arrest in human HepG2 cells assessed as accumulation at G2/M phase at 500 nM after 24 hrs by propidium iodide staining-based flow cytometry; type: functional
[23] = test system: RD; assay: Cell cycle arrest in human RD cells at 1000 to 2000 nM incubated for 24 hrs followed by compound washout measured after 24 hrs; type: functional, cell-based
[24] = test system: RD; assay: Cell cycle arrest in human RD cells assessed as rounded cells at 500 nM after 24 hrs by propidium iodide staining-based flow cytometry; type: functional
[25] = test system: RD; assay: Cell cycle arrest in human RD cells assessed as accumulation at G2/M phase at 500 nM after 24 hrs by propidium iodide staining-based flow cytometry; type: functional
[26] = test system: HepG2; assay: Induction of apoptosis in human HepG2 cells after 48 hrs by annexin-V/propidium iodide staining-based flow cytometry; type: functional, cell-based
[27] = test system: RD; assay: Cell cycle arrest in human RD cells at 500 nM incubated for 24 hrs followed by compound washout measured after 24 hrs; type: functional, cell-based
[28] = test system: RD; assay: Cytotoxicity against human RD cells assessed as growth inhibition after 48 hrs by MTT method; type: functional, cell-based
[29] = test system: HepG2; assay: Cell cycle arrest in human HepG2 cells assessed as rounded cells at 500 nM after 24 hrs by propidium iodide staining-based flow cytometry; type: functional
[30] = test system: K562; assay: Cell cycle arrest in human K562 cells assessed as mitotic index at 0.1 nM (reference value: 3 +/- 1%); type: functional
[31] = test system: HeLa; assay: Induction of apoptosis in human HeLa cells assessed as unstructured tubulin foci at 100 nM by immunofluorescence analysis; type: functional, cell-based
[32] = test system: HeLa; assay: Induction of apoptosis in human HeLa cells assessed as failure of MT elongation at 20 nM by immunofluorescence analysis; type: functional, cell-based
[33] = cells; details: Homo sapiens, HCT-15, 72 h
Description: Cytotoxicity against human HCT15 cells assessed as growth inhibition after 72 hrs by CellTitre-Glo assay

[34] = test system: HeLa; assay: Induction of apoptosis in human HeLa cells assessed as short, aberrantly shaped, tripolar or multipolar microtubule microtubule at 20 nM by immunofluorescence analysis; type: functional, cell-based
[35] = test system: HeLa; assay: Induction of apoptosis in human HeLa cells assessed as failure of MT elongation at 100 nM by immunofluorescence analysis; type: functional, cell-based
[36] = Cytotoxicity against human PC3 cells assessed as growth inhibition after 48 hrs by MTT method; type: functional, cell-based; details: PC-3, 48 h
[37] = test system: RD; assay: Induction of apoptosis in human RD cells at 500 to 2000 nM after 48 hrs by annexin-V/propidium iodide staining-based flow cytometry; type: functional, cell-based
[38] = Cytotoxicity against human D283 cells; type: functional, cell-based
[39] = test system: K562; assay: Cell cycle arrest in human K562 cells assessed as mitotic index at 10 times IC50 (reference value: […] +/- […]%); type: functional
[40] = test system: HepG2; assay: Induction of apoptosis in human HepG2 cells at 500 to 2000 nM after 48 hrs by annexin-V/propidium iodide staining-based flow cytometry; type: functional, cell-based
[41] = test system: PC-3; assay: Induction of apoptosis in human PC3 cells after 48 hrs by annexin-V/propidium iodide staining-based flow cytometry; type: functional, cell-based
[42] = Cytotoxicity against human MESSA/DX5 cells assessed as growth inhibition after 72 hrs by CellTitre-Glo assay; type: functional, cell-based; details: MES-SA/Dx5, 72 h
[43] = test system: HepG2; assay: Cytotoxicity against human HepG2 cells assessed as growth inhibition after 48 hrs by MTT method; type: functional, cell-based; details: HepG2, 48 h
[44] = test system: K562; assay: Cytotoxicity against human K562 cells assessed as growth inhibition after 96 hrs by Giemsa staining-based light microscopy; type: functional, cell-based; details: K562, 96 h
[45] = Inhibition of hedgehog signaling in mouse NIH/3T3 Shh-Light II cells after 48 hrs by luciferase reporter gene assay; type: functional, cell-based

COc1cc(C(=O)c2ccn(-c3ccccc3)c2)cc(OC)c1OC
IC50 [1]: 1500 nM | IC50 [2]: 77 nM | IC50 [3]: 200 nM | Activity [4]: Active | IC50 [5]: 45 nM | Activity [6]: Active | IC50 [7]: 90 nM | IC50 [8]: 700 nM | inhibition [9]: 80% | Activity [10]: inactive | Activity [11]: inactive | IC50 [12]: 56 nM | Activity [13]: Active | Activity [14]: Active | IC50 [15]: 20 nM | IC50 [16]: 100 nM | Activity [17]: Dose-dependent effect

CC(=O)O[C@H]1C(=O)[C@@]2(C)[C@H]([C@H](OC(=O)c3ccccc3)[C@]3(O)C[C@H](OC(=O)[C@H](O)[C@@H](NC(=O)c4ccccc4)c4ccccc4)C(C)=C1C3(C)C)[C@]1(OC(C)=O)CO[C@@H]1C[C@@H]2O [PACLITAXEL]
Activity [18]: inactive | Activity [19]: Active | Activity [20]: inactive | Activity [21]: Active | Activity [22]: Active | Activity [23]: inactive | Activity [24]: Active | Activity [25]: Active | Activity [26]: Dose-dependent effect | Activity [27]: Active | IC50 [28]: 14.2 µM | Activity [29]: Active

COc1ccc(/C=C\c2cc(OC)c(OC)c(OC)c2)cc1O [COMBRETASTATIN A4]
Activity [30]: 65% | Activity [31]: Active | Activity [32]: Active | IC50 [33]: 39 nM | Activity [34]: Active | Activity [35]: Active | Activity [13]: Active

COc1cc(C(=O)c2ccn(-c3cccc(NC(=N)N)c3)c2)cc(OC)c1OC.Cl
IC50 [36]: 3.9 nM | Activity [37]: Active | IC50 [1]: 1200 nM | IC50 [38]: 675 nM | Activity [39]: 71% | Activity [19]: Active | Activity [20]: inactive | Activity [40]: Active | Activity [41]: Dose-dependent effect | IC50 [42]: 16 nM | Activity [21]: Active | IC50 [43]: 49.5 nM | IC50 [8]: 20 nM | inhibition [9]: 87% | Activity [22]: Active | IC50 [12]: 14 nM | IC50 [44]: 25 nM | inhibition [45]: Dose-dependent effect | Activity [24]: Active | Activity [25]: Active | Activity [27]: Active | IC50 [28]: 0.803 µM | Activity [29]: Active

Source: ChEMBL document CHEMBL3351435, “New pyrrole derivatives with potent tubulin polymerization inhibiting activity as anticancer agents including hedgehog-dependent cancer” (J Med Chem, 2014)
